Data on 14 molecules can be found in US5410052A, “Symmetrical and unsymmetrical polyalkylamine metal complexes for ligand extraction and generation” (The Regents of the University of California, priority 1990, dated 1995).

Like-named read-outs stand apart in the source and are kept apart here.

A short description of data set [1]: Potentiometric pH titration of polyalkylamines: protonation constants (basicity). To be noted: 25°±0.1° C., ca. 1.5 mM PAA; Ref. 3 determined by applicants. Type of data set: physicochemical. From the text: the equilibrium constants for successive protonations of the PAA compounds are defined by
KHi =[PAA(H^+)i ]/[PAA(H^+)i-1 ] [H^+ ](10)
Where spectrophotometric characterization of a particular cobalt carrier compound has proven satisfactory, both the polyalkylamine and the cobalt carrier compound are characterized by a set of potentiometric pH titrations to determine the basicity of the ligating atoms, the formation constants KML and KMLH, and the apparent oxygen binding equilibrium constants.
Potentiometric titrations are performed using a Fisher or Cole-Palmer pH meter in a sealed, jacketed glass cell equipped with glass and calomel electrodes and with provisions for performing measurements under oxygen-free conditions. The cell is kept at a constant temperature of 25°±0.1° C. by circulating water from a thermostated bath through the cell jacket. The electrodes and pH meter are standardized with commercially available standard buffer solutions (Fisher Scientific). The polyalkylamine ligands and cobalt carrier compounds were each titrated potentiometrically by incrementally adding standard potassium hydroxide solution and recording the pH of the solution after each addition of base. Titrations of the cobalt carrier compounds are carried out under prepurified nitrogen or argon; titrations of oxygenated carrier compounds are performed under oxygen treated with Ascarite to remove carbon dioxide.
All solutions contained ca. 1.5 mM PAA; for titrations of cobalt complexes, the solutions contained, in addition, 1.5 mM CoCl2.
Typical results obtained as outlined above from pH titrations of selected polyalkylamines, cobalt carrier compounds, and oxygen complexes of cobalt carrier compounds are graphically depicted in FIGS. 2, 3, and 4, and summarized in Table III. The values shown in Table III, defined by equations (6)-(8) and (10). above, were derived either by direct measurement from the titration curves obtained, or determined by the iterative best fit of the data to a computer program such as that described by Harris, et al., Inorganic Chemistry, vol. 17, p. 889, 890 (1978). Generally, although the latter values are considered to be more reliable, values obtained by either methods are approximately the same and sufficient for the present evaluation.

A short description of data set [2]: Cyclic voltammetry of Co(PAA)n+ carrier compounds. The format is physicochemical. More on the design: key to ΔE / EPA / EPC: N.O.: not observed due to low electrochemical activity. The method, then:
Cyclic voltammentry experiments were performed under nitrogen or iar for the unoxygenated or oxygenated carrier compounds, respectively, in a cell having a platinum wire auxiliary electrode, a silver-silver chloride reference electrode, and suitable working electrode. The potential between the auxiliary and working electrodes was varied with a Princeton Applied Research (Princeton, N.J.) Scanning Potentiostate at 50 mV/s from a suitable initial with a suitable initial scan direction (Scan Dir.), depending on the electrochemical potentials if interest. All solutions contained 1 mM CoCl2, 1 mM or 1.5 mM PAA, and a supporting electrolyte, and were buffered to a suitable pH, usually about the initial working pH.
Cyclic voltammetry enables the estimation of anode (EPA) and cathode (EPC) half cell potentials, the cell potential ΔE=(EPA -EPC), and an approximate formal reaction potential […]. In addition, estimates of the rate of electron transfer to a particular electrode and electrochemical reversibility of the reaction can be obtained.

For data set [3] the following is noted: literature, Ref. 1, 2 or 4; cited from earlier work.
On the set-up of data set [4]: key to Log K02 (symbol): *: Oxygen complex is unstable.; **: No oxygen complex observed. As to conditions: cobalt complex, literature, cited from earlier work; for Log K02: dimeric oxygen complex, Ref. 1 or 4.
[5] abbreviates: ox, 1.0 mM PAA, pH 12.0, 0.5M KCl/0.1M K2HPO4, glassy carbon, Einitial +0.19 V, scan -.
Where [6] appears, read: ox, 1.0 mM PAA, pH 6.0, 0.5M KCl/0.1M K2HPO4, glassy carbon, Einitial +0.1 V, scan +.
The mark [7] stands for this setting: ox, 1.0 mM PAA, pH 3.0, 0.5M KCl/0.1M K2HPO4, glassy carbon, Einitial -0.05 V, scan +.
Where [8] appears, read: deox, 1.0 mM PAA, pH 5.93, 0.5M KCl/0.1M K2HPO4, glassy carbon, Einitial +0.1 V, scan +.
The mark [9] stands for this setting: ox, 1.0 mM PAA, pH 5.93, 0.5M KCl/0.1M K2HPO4, glassy carbon, Einitial +0.1 V, scan +.
The mark [10] stands for this setting: deox, 1.5 mM PAA, pH 3.0, 0.5M KCl/0.1M K2HPO4, gold, Einitial -0.3 V, scan +.
The mark [11] stands for this setting: ox, 1.0 mM PAA, pH 9.0, 0.5M NaCl/0.1M Borate, gold, Einitial +0.12 V, scan +.
[12] abbreviates: deox, 1.0 mM PAA, pH 7.6, 0.5M NaCl/0.1M K2HPO4, gold, Einitial -0.3 V, scan +.
Setting [13] is: ox, 1.0 mM PAA, pH 7.6, 0.5M KCl/0.1M K2HPO4, gold, Einitial +0.3 V, scan +.
Where [14] appears, read: deox, 1.0 mM PAA, pH 10.1, 0.5M KCl/0.1M K2HPO4, glassy carbon, Einitial +0.15 V, scan -.
The mark [15] stands for this setting: ox, 1.0 mM PAA, pH 10.1, 0.5M KCl/0.1M K2HPO4, glassy carbon, Einitial +0.1 V, scan +.
Where [16] appears, read: deox, 1.5 mM PAA, pH 9.0, 0.5M NaCl/0.1M Borate, glassy carbon, Einitial -0.3 V, scan +.
[17] abbreviates: ox, 1.5 mM PAA, pH 9.0, 0.5M NaCl/0.1M Borate, glassy carbon, Einitial -0.3 V, scan +.

For `CN(CCCNCc1ccccn1)CCCNCc1ccccn1` [compound 76], in data set [1], the “Log K1” value is listed as 9.15, the “Log K2” value is recorded as 7.20, the “Log K3” value stood at 5.79 and the “Log K4” value is on record as 3.40. In data set [2] (setting [5]), this molecule yielded an EPA of 0.25 V, an EPC of -0.35 V and a ΔE of 0.6 V.
Turning to `c1nc(CNCCNCCNCc2c[nH]cn2)c[nH]1` [compound 75], in data set [3], the “Log K1” value was 9.22, the “Log K2” value was 8.18, the “Log K3” value is 4.91 and the “Log K4” value is listed as 3.90. In data set [3], the “Log K5” value is 2.92. In data set [1], the “Log K1” value came out at 9.15, the “Log K2” value was found to be 8.03, the “Log K3” value was 4.92 and the “Log K4” value amounted to 3.91.
For the molecule `c1nc(CNCCCNCCCNCc2c[nH]cn2)c[nH]1` [compound 74], in data set [3], the “Log K1” value is recorded as 10.12, the “Log K2” value is listed as 8.62, the “Log K3” value is 7.36 and the “Log K4” value is on record as 4.51. Further, in data set [3], the “Log K5” value is on record as 3.82. Further, in data set [1], the “Log K1” value was 9.75, the “Log K2” value turned out to be 8.58, the “Log K3” value turned out to be 7.2 and the “Log K4” value is 4.75. In addition, the “Log K5” value in data set [1] is listed as 3.75. For the same molecule, the “Log K02” value in data set [4] was 9.49.
For `Cc1cccc(CNCCCNCCCNCc2cccc(C)n2)n1` [compound 81], in data set [1], the “Log K1” value is on record as 9.44, the “Log K2” value is listed as 7.40, the “Log K3” value came to 6.25 and the “Log K4” value is reported as 3.40.
Turning to `c1ccc(CCNCc2cccc(CNCCc3ccccn3)n2)nc1` [compound 63], in data set [1], the “Log K1” value stood at 8.75, the “Log K2” value came to 7.61 and the “Log K3” value amounted to 3.81. In addition, in data set [2] (setting [6]), the EPA entry is “N.O”, the EPC entry is reported as “N.O” and the ΔE entry is given as “N.O”.
With `NCCNCc1cccc(CNCCN)n1` [compound 69], in data set [1], the “Log K1” value is on record as 9.31, the “Log K2” value stood at 8.6, the “Log K3” value is listed as 5.9 and the “Log K4” value is 4.74. Further, in data set [2] (setting [7]), the EPA was 0.5 V, the EPC is reported as -0.2 V and the ΔE is given as 0.7 V.
Consider `c1ccc(CNCCCNCCNCc2ccccn2)nc1` [compound 72], for which, in data set [1], the “Log K1” value came to 8.6, the “Log K2” value came out at 6.75 and the “Log K3” value was 4.76. In addition, in data set [2] (setting [8]), the EPA worked out at 0.03 V, the EPC is listed as 0.66 V, the “E°” value is -0.02 V and the ΔE is on record as 0.11 V. For the same molecule, in data set [2] (setting [9]), the EPA was 0.66 V, the EPC is given as -0.07 V and the ΔE was determined as 0.73 V.
Turning to `c1ccc(CNCCNCCNCc2ccccn2)nc1` [compound 62], in data set [3], the “Log K1” value is on record as 8.88, the “Log K2” value was 7.04, the “Log K3” value is 3.82 and the “Log K4” value was 1.44. In data set [1], the “Log K1” value is 8.91, the “Log K2” value was 6.95 and the “Log K3” value is 3.64. Moreover, in data set [2] (setting [10]), the EPA stood at 0.0 V, the EPC is reported as -0.1 V, the “E°” value is -0.05 V and the ΔE turned out to be 0.1 V. Moreover, in data set [2] (setting [11]), the EPA is on record as 0.75 V, the EPC is reported as -0.55 V and the ΔE was determined as 1.3 V. Moreover, the “Log K02” value in data set [4] is on record as 11.4.
Consider `c1ccc(CNCc2cccc(CNCc3ccccn3)n2)nc1` [compound 21], for which, in data set [3], the “Log K1” value is recorded as 7.55, the “Log K2” value was 6.86, the “Log K3” value is listed as 3.2 and the “Log K4” value is 2.9. Further, in data set [1], the “Log K1” value is given as 7.74, the “Log K2” value amounted to 6.69 and the “Log K3” value is listed as 2.95. In addition, the “Log K02 (symbol)” value in data set [4] (Ref. 2) is on record as “*”.
`c1ccc(CNCCCNCCCNCc2ccccn2)nc1` [compound 64]: in data set [3], the “Log K1” value is on record as 9.92, the “Log K2” value is 7.63, the “Log K3” value is given as 6.76 and the “Log K4” value is recorded as 1.79. For the same molecule, in data set [1], the “Log K1” value stood at 9.54, the “Log K2” value came to 7.44 and the “Log K3” value is 6.34. In data set [2] (setting [12]), the EPA amounted to 0.4 V, the EPC is -0.45 V, the “E°” value is recorded as -0.05 V and the ΔE amounted to 0.85 V. Moreover, in data set [2] (setting [13]), the EPA is 0.08 V, the EPC was -0.4 V and the ΔE is 1.2 V. The “Log K02” value in data set [4] is 7.7.
In the case of `c1c[nH]c(CNCCCNCCCNCc2ncc[nH]2)n1` [compound 73], in data set [3], the “Log K1” value is 9.76, the “Log K2” value was 7.22, the “Log K3” value is listed as 6.51 and the “Log K4” value was 3.92. The “Log K5” value in data set [3] is recorded as 3.29. In addition, in data set [4], the “Log K02” value is given as 8.63.
For the molecule `c1ccc(CNCCCCNCCCNCc2ccccn2)nc1` [compound 78], in data set [1], the “Log K1” value turned out to be 9.36, the “Log K2” value was found to be 7.69 and the “Log K3” value is on record as 6.60. Besides, in data set [2] (setting [14]), the EPA was found to be 0.18 V, the EPC is listed as 0.1 V, the “E°” value turned out to be 0.14 V and the ΔE is on record as 0.08 V. Moreover, in data set [2] (setting [15]), the EPA stood at 0.185 V, the EPC was determined as 0.055 V, the “E°” value is reported as 0.12 V and the ΔE was determined as 0.13 V.
On to `Cc1cccc(CNCCNCCNCc2cccc(C)n2)n1` [compound 80], for which, in data set [1], the “Log K1” value is 8.52, the “Log K2” value is 6.72, the “Log K3” value is recorded as 4.1 and the “Log K4” value worked out at 3.28. In addition, the “Log K5” value in data set [1] was found to be 2.86.
Regarding `NCCNCCNCCNCCN` [compound 33], in data set [3], the “Log K1” value was 9.85, the “Log K2” value was 9.27, the “Log K3” value is reported as 8.19 and the “Log K4” value was 5.08. Moreover, the “Log K5” value in data set [3] was 3.43. In data set [2] (setting [16]), the EPA is listed as -0.33 V, the EPC is reported as -0.45 V, the “E°” value is given as -0.39 V and the ΔE was found to be 0.12 V. Also, in data set [2] (setting [17]), the EPA was 0.7 V, the EPC is given as -0.5 V and the ΔE is recorded as 1.2 V. Also, the “Log K02” value in data set [4] is reported as 15.83.
